# Measurements from patent US6034113A, “Derivatives of 1,3,4-oxadiazolone” (Bristol-Myers Squibb Company, priority 1999, dated 2000).
# Legend:
# [1] = tested on: cloned mammalian (mSlo or hSlo) BK; assay: BK-mediated outward current, two-electrode voltage clamp in Xenopus oocytes; type: cell-based; conditions: 1 μM; at least 5 oocytes; mSlo or hSlo expressed in Xenopus oocytes
# Procedure: (§1) The ability of the compound of Example 1 to open BK channels and increase whole-cell outward (K^+) BK-mediated currents was assessed under voltage-clamp conditions by determining their ability to increase cloned mammalian (mSlo or hSlo) BK--mediated outward current heterologously expressed in Xenopus oocytes [Butler, A., et al., Science, 261, pp. 221-224 (1993); and Dworetzky, S. I., et al., Mol. Brain Res., 27, pp.189-193 (1994)]. The two BK constructs employed represent nearly structurally identical homologous proteins, and have proven to be pharmacologically identical in our tests. To isolate BK current from native (background, non-BK) current, the specific and potent BK channel-blocking toxin iberiotoxin (IBTX) [Galvez, A., et al., J. Biol. Chem, 265, pp. 11083-11090 (1990)] was employed at a supramaximal concentration (50 nM). The relative contribution of BK channels current to total outward current was determined by subtraction of the current remaining in the presence of IBTX (non-BK current) from the current profiles obtained in all other experimental conditions (control, drug, and wash). […]
# [2] = tested on: non-BK native currents in the oocytes; assay: Effect on non-BK native currents (IBTX-insensitive) in oocytes; type: cell-based, Xenopus; conditions: at the tested concentration; current remaining in presence of 50 nM IBTX
# Procedure: as §1
# [3] = tested on: focal cerebral ischemia in the Wistar rat; assay: Focal stroke model, permanent MCA/CCA occlusion; type: in vivo; conditions: 1 mg/kg intravenously, single bolus two hours after MCA occlusion; measured 24 hours after MCAO; vs vehicle-treated (water) control
# Procedure: To determine the ability of the compounds of the present invention to reduce cell loss resulting from neuronal ischemia, a standard focal cerebral ischemia is induced by permanent occlusion of the left middle cerebral artery (MCA) and common carotid artery (CCA) with one hour occlusion of the right CCA in the Wistar rat. The surgeries are performed using the sub-temporal approach of A. Tamura, et al., J. Cereb. Blood Flow Metab., 1, pp. 53-60, (1981) and its modifications [K. Osbome, et al., J. Neurol Neurosurg. Psychiatry, 50, pp. 402-410 (1987) and S. Menzies, et al., Neurosurgery, 31, pp. 100-107, (1992).]
# The compound of Example 13 was evaluated in the focal stroke model involving permanent occlusion of the left MCA (MCAO) and CCA (CCAO) and temporary occlusion of the right CCA in the Wistar rat. This procedure results in a reliably large neocortical infarct volume that is measured by means of vital dye exclusion in serial slices through the brain 24 hours after MCAO. In the present test, compounds were administered using an i.v. or i.p. route of administration two hours after occlusion.
# [4] = Rapid screen of prodrug hydrolysis and drug release in plasma; type: in vitro ADME; conditions: 10 ug/mL in fresh rat plasma at 37° C.; stock 1 mg/mL in PEG-400; analysis 5 minutes after incubation
# Procedure: A rapid screen to determine the ability of prodrugs to hydrolyze and release the drug (compound of Example 1) is conducted as follows. A 1 mg/mL stock solution of the prodrug is prepared in distilled water or acetonitrile or PEG-400. Plasma from freshly collected rat or human blood is used in this assay. To 1 mL of plasma at 37° C. was added 10 μL of stock solution of prodrug and mixed gently. Immediately after the mixing, 100 μL of plasma was removed and quenched with 300 μL of acetontrile (Zero time sample). Samples were also obtained at 30 minutes and quenched immediately. The quenched samples were centrifuged to obtain a clear supernatant for analysis. The stock solution, T=0 and T=30 samples were analyzed by a HPLC assay that separates the drug from the prodrug. Based on the relative peak areas of prodrug and drug in these samples, different prodrugs are characterized as fast, moderate and slow release agents. For example, in this model, the compound of Example 13 was dissolved in PEG-400 at a concentration of 1 mg/mL and incubated at 10 ug/mL in fresh rat plasma at 37° C.
structure (smiles),measurement,setting,value
"O=c1oc(-c2ccc(C(F)(F)F)cc2)nn1Cc1cc(Cl)ccc1O [Example 1, 3-[(5-Chloro-2-hydroxyphenyl)methyl]-5-[4-(trifluoromethyl)phenyl]-1,3,4-oxadiazol-2(3H)-one]","increase of BK current, % of control of IBTX-sensitive current",[1],126%
same,effect on non-BK native currents in the oocytes,[2],did not effect non-BK native currents
"C[N+](C)(C)CCCC(=O)OCOc1ccc(Cl)cc1Cn1nc(-c2ccc(C(F)(F)F)cc2)oc1=O [Example 13, 3-[[[[4-Chloro-2-[[5-[4-(trifluoromethyl)phenyl]-2,3-dihydro-2-oxo-1,3,4oxadiazol-3-yl]methyl]phenoxy]methoxy]carbonyl]propyl]trimethylammonium methanesulfonate]",reduction of cortical infarct volume,[3],about 17%
same,conversion of prodrug to the compound of Example 1 in plasma,[4],conversion of the compound of Example 13 to the compound of Example 1
